Positions count from the first letter of the chain named.
Experiments:
[1] = target: T1, corn root FNR (ferredoxin:NADP+ reductase) (Zea mays, UniProt B4G043); test: anaerobic spectrophotometric titration, flavin charge-transfer bands; type: biochemical; details: 50 mM HEPES-NaOH, pH 7.0, 15 °C
T1 sequence (B4G043 66-381): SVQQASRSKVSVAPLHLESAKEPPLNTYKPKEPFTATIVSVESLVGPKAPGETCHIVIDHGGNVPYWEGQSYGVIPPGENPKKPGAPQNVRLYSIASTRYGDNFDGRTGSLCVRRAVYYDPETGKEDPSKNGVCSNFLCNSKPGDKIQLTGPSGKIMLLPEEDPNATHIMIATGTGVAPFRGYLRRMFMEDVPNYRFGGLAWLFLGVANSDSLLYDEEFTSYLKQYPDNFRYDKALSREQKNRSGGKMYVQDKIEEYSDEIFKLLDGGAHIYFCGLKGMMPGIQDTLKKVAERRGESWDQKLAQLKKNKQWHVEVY

[2] = target: T2, corn root FNR (ferredoxin:NADP+ reductase) (Zea mays, UniProt B4G043, Y381S); test: titration, visible absorption of FAD; type: binding
T2 sequence (B4G043 66-381 Y381S): T1 sequence (B4G043 66-381) with Y316S

[3] = target: T2, corn root FNR (ferredoxin:NADP+ reductase); test: anaerobic titration, visible absorption of FAD; type: binding

Row | Compound | Kd [2] [µM] | other results
1 | NC(=O)C1=CN([C@@H]2O[C@H](COP(=O)(O)OP(=O)(O)OC[C@H]3O[C@@H](n4cnc5c(N)ncnc54)[C@H](OP(=O)(O)O)[C@@H]3O)[C@@H](O)[C@H]2O)C=CC1 [NADPH] |  | anaerobic spectrophotometric titration, flavin charge-transfer bands [1]: for wild-type the CTC-1 absorption band dominates
2 | NC(=O)c1cccnc1 [nicotinamide] | 3000 ± 100 | 
3 | NC(=O)c1ccc[n+]([C@@H]2O[C@H](COP(=O)(O)OP(=O)(O)OC[C@H]3O[C@@H](n4cnc5c(N)ncnc54)[C@H](OP(=O)(O)O)[C@@H]3O)[C@@H](O)[C@H]2O)c1 [NADP^+] |  | Kd [3]: ≤ 0.02 µM
4 | NC(=O)c1ccc[n+]([C@@H]2O[C@H](COP(=O)(O)OP(=O)(O)OC[C@H]3O[C@@H](n4cnc5c(N)ncnc54)[C@H](O)[C@@H]3O)[C@@H](O)[C@H]2O)c1 [NAD^+] | 145 ± 5 | 

From PMC5626627 (The FEBS journal, 2017)
